What was measured:
GRK2 [1] = biological target: T1, GRK2 (Homo sapiens, UniProt P25098); assay: GRK2 Inhibition Assay (TR-FRET, Example 7); format: biochemical
T1 construct: purchased SignalChem A14-10G
T1 sequence (P25098 1-689): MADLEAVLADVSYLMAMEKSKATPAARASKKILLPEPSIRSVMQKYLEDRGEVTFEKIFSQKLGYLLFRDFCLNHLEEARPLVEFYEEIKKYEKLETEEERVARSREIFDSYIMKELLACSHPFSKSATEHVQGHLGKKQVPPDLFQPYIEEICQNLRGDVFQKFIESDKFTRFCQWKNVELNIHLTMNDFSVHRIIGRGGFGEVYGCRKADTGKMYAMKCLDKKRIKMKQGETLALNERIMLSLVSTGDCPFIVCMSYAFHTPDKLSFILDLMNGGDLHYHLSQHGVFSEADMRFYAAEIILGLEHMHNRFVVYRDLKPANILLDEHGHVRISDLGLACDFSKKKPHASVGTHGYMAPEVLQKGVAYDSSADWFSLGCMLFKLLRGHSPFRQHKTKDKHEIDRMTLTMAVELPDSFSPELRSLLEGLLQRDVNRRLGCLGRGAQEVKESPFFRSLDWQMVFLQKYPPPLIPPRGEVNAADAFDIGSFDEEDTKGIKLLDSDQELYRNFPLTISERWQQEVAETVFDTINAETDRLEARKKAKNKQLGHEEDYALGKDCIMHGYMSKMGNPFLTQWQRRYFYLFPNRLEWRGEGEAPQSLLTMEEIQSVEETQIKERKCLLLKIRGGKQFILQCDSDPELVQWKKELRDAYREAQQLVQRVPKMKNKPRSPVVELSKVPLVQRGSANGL
Description: Enzyme GRK2 (1 nM final concentration) was diluted in 25 mMv HEPES, 10 mM MgCl2, 2 mM DTT, 0.01% Tween-20, and 1 mM EGTA. Then the GRK2 mixture was added into ProxiPlate-384 white plate and pre-incubated for 30 min with test compounds at room temperature. ATP (7 μM final concentration) and Ulight TopoIIα (50 nM final concentration) were added into the assay plate to initiate the reaction and the mixture was incubated at room temperature for 90 min. Then, Eu anti-TopoIIα (0.12 nM final concentration), BSA (0.01% final concentration), and EDTA (11 mMv final concentration) in LANCE assay buffer were added into each well. After 60 min incubation time at room temperature, TR-FRET signal was measured by EnVision plate reader.

GRK2 [2] = biological target: T1, GRK2; assay: ADPGlo GRK2 Inhibition Assay (Example 8); format: biochemical
Method in brief: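 GRK2 (15 nM 2× enzyme solution) was preincubated 15 min with compound, then reacted 180 min at room temperature with 2× mix of 20 μM ATP plus GRKtide in HEPES pH 7.5, MgCl2, Tween-20, DTT. ADP was detected by ADP-Glo luminescence. Percent inhibition was normalised to enzyme and no-enzyme controls, with dose-response curves from threefold dilutions starting at 100 μM.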

[3] = system: PAXF1657 control empty vector cell line; assay: 7-day proliferation assay, PAXF1657 control empty vector cell line (Example 9); format: cell-based; details: 168 h; Cell Line: PAXF1657 empty vector (EV) cell line; 7-day; read-out: C: 7-day proliferation assay: IC50 GeoMean
Method in brief: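 Isogenic PAXF1657 pairs differing in GRK2 level (stable cDNA overexpression or CRISPR knockout, each with matched control) are seeded and allowed to attach overnight. Inhibitors span 30 μM-0.0002 μM in 0.3% DMSO for 3 plus 4 days at 37° C, 5% CO2, with a medium change between.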

[4] = Enzyme Assay B, TR-FRET (Example 7), read-out: B: Enzymatic GRK2: IC50 (nM) (Example 7)
[5] = Enzyme Assay A, ADPGlo (Example 8), read-out: A: Enzymatic GRK2: IC50 (nM) (Example 8)
[6] = TR-FRET GRK2 enzyme assay, read-out: B: Enzymatic GRK2: IC50 (nM) (Example 7)
[7] = ADPGlo GRK2 enzyme assay, read-out: A: Enzymatic GRK2: IC50 (nM) (Example 8)

| Compound | IC50 (GRK2 [1]; [4]) [nM] | IC50 (GRK2 [2]; [5]) [nM] | IC50 [3] [nM] | other results |
| --- | --- | --- | --- | --- |
| Cn1c(CNc2cccc(C(=O)N[C@H]3CCOc4cccnc43)c2)nnc1-c1ccncn1 | 990 | 144 | > 10100 | – |
| C#Cc1cccc(OS(=O)(=O)F)c1CNC(=O)c1cccc(NCc2nnc(-c3ccncc3)[nH]2)c1 | – | – | 1550 | IC50 (GRK2 [1]): 4.2 nM; IC50 (GRK2 [2]): 8.94 nM |
| Cc1ccn2c(CNC(=O)c3cccc(NCc4nnc(-c5ccncn5)n4C)c3)cnc2c1 [drawing 620] | 20 | 3 | 5600 | – |
| CCc1cnccc1CNC(=O)c1cccc(NCc2nnc(-c3ccncn3)n2[C@@H]2CCC[C@H](NC)C2)c1 | – | – | > 4570 | IC50 (GRK2 [1]; [6]): 57 nM; IC50 (GRK2 [2]; [7]): 456 nM |
| C[C@@H](NC(=O)c1cccc(NCc2nnc(-c3ccncn3)n2C)c1)c1ncccc1Cl [drawing 845] | – | – | 27100 | IC50 (GRK2 [1]; [6]): 15 nM; IC50 (GRK2 [2]; [7]): 12 nM |
| CC(NC(=O)c1cccc(NCc2nnc(-c3ccncn3)n2C)c1)c1c[nH]cn1 (centres unmarked) [drawing 599] | 60 | 5.7 | > 30000 | – |
| Cn1c(CNc2cccc(C(=O)NCc3cnn(-c4ccccc4)n3)c2)nnc1-c1ccncn1 [drawing 616] | 18 | 6.5 | > 30000 | – |
| Cn1c(CNc2cccc(C(=O)N[C@H]3c4ccccc4C[C@H]3O)c2)nnc1-c1ccncn1 | 24 | 7.3 | 1410 | – |
| Cn1c(CNc2cccc(C(=O)N[C@H]3CCOc4ccccc43)c2)nnc1-c1ccncc1F | 59 | 44.3 | 1490 | – |
| C[C@H](NC(=O)c1cccc(NCc2nnc(-c3ccncn3)n2C)c1)c1ncccc1Cl | – | – | 696 | IC50 (GRK2 [1]; [6]): 16 nM; IC50 (GRK2 [2]; [7]): 9.6 nM |
| Cn1c(CNc2cc(C(=O)N[C@H]3COc4ccccc43)ccn2)nnc1-c1ccncn1 | 15.3 | 12.9 | 476 | – |
| CCS(=O)(=O)c1ccc(CNC(=O)c2cccc(NCc3nnc(-c4ccncn4)n3C)c2)cc1 [drawing 618] | 21 | 6.2 | > 30000 | – |
| Cn1c(CNc2cccc(C(=O)N[C@H]3CCOc4c(Cl)cccc43)c2)nnc1-c1ccncn1 | – | – | > 1010 | IC50 (GRK2 [1]; [6]): 13.2 nM; IC50 (GRK2 [2]; [7]): 33.6 nM |
| COc1ncccc1CNC(=O)c1cccc(NCc2nnc(-c3ccncc3)[nH]2)c1 [compound 9] | – | – | – | IC50 (GRK2 [1]; 1 nM GRK2, 7 μM ATP, TR-FRET, read-out: GRK2 IC50 (nM) (Example 7)): 5.8 nM; IC50 (GRK2 [2]; 7.5 nM GRK2, 10 μM ATP, ADP-Glo, read-out: GRK2 IC50 (nM) (Example 8)): 12 nM |
| CCc1cnccc1CNC(=O)c1cccc(NCc2nnc(-c3ccncn3)n2[C@H]2CCC[C@H](NC)C2)c1 | – | – | – | IC50 (GRK2 [1]; [6]): 810 nM; IC50 (GRK2 [2]; [7]): 529 nM |
| O=C(NC1(c2ccccc2)CCOCC1)c1cccc(NCc2nnc3n2CCOc2cnccc2-3)c1 | 39 | – | 20300 | – |
| Cc1ccc2c(c1)[C@H](NC(=O)c1cccc(NCc3nnc(-c4ccncn4)n3C)c1)CC(C)(C)O2 | 48 | – | > 30000 | – |
| COCCCn1c(CNc2cccc(C(=O)NCc3cccnc3C(F)(F)F)c2)nnc1-c1ccncn1 | 15 | – | 1200 | – |
| CCc1cnccc1CNC(=O)c1cccc(NCc2nnc(-c3ccncn3)n2CCCNC)c1 | 94 | – | > 30000 | – |
| COCCOc1cccc(CNC(=O)c2cccc(NCc3nnc(-c4ccncn4)n3C)c2)c1 | 39 | – | 779 | – |
| [2H]C([2H])(Nc1cccc(C(=O)N[C@H]2CCOc3ccccc32)c1)c1nnc(-c2ccccn2)n1C | – | – | 2650 | IC50 (GRK2 [1]; [6]): 8.3 nM |
| O=C(NCc1ccccc1OS(=O)(=O)F)c1cccc(NCc2nnc(-c3ccncc3)n2CCCO)c1 | – | – | > 30000 | IC50 (GRK2 [1]): 17 nM |
| Cn1c(CNc2cccc(C(=O)N[C@@H]3CCOc4ccc(Br)cc43)c2)nnc1-c1ccncn1 | 510 | – | > 30000 | – |
| Cn1c(CNc2cc(C(=O)N[C@@H]3CCOc4c(Cl)cccc43)ccn2)nnc1-c1ccncn1 | 20 | – | 2070 | – |
| O=C(NCCc1ccccc1OS(=O)(=O)F)c1cccc(NCc2nnc(-c3ccncc3)[nH]2)c1 | – | – | 13100 | IC50 (GRK2 [1]): 73 nM |
| Cn1c(CNc2cccc(C(=O)N[C@H]3CCOc4ccc(Cl)cc43)c2)nnc1-c1ccncn1 | 120 | – | > 30000 | – |
| Cn1c(CNc2cccc(C(=O)N[C@H]3CCOc4cc(Cl)ccc43)c2)nnc1-c1ccncn1 | 18 | – | > 29400 | – |

Further lines, with some results ahead:

| IC50 (GRK2 [1]; [4]) [nM] | IC50 (GRK2 [2]; [5]) [nM] | Compound | IC50 [3] [nM] | other results |
| --- | --- | --- | --- | --- |
| 8.6 | 1.1 | Cc1cccc(C(CO)NC(=O)c2cccc(NCc3nnc(-c4ccncn4)n3C)c2)c1 (centres unmarked) [drawing 589] | 407 | – |
| 2.1 | 0.79 | Cc1cccc2nnc(CNC(=O)c3cccc(NCc4nnc(-c5ccncn5)n4C)c3)n12 | > 30000 | – |
| 5.8 | 12 | COc1ncccc1CNC(=O)c1cccc(NCc2nnc(-c3ccncc3)[nH]2)c1 [drawing 424] | > 11000 | – |
| 12 | 2.7 | Cn1c(CNc2cccc(C(=O)NCc3cccc(C#N)c3)c2)nnc1-c1ccncn1 [drawing 591] | > 30000 | – |
| 13 | 5.4 | COc1cccc(C(CO)NC(=O)c2cccc(NCc3nnc(-c4ccncn4)n3C)c2)c1 (centres unmarked) [drawing 569] | > 30000 | – |
| 7 | 1.3 | Cn1c(CNc2cccc(C(=O)N[C@@H]3CCOc4cccnc43)c2)nnc1-c1ccncn1 | 192 | – |
| 13 | 9.6 | Cn1c(CNc2cccc(C(=O)NC3CCOc4cccnc43)c2)nnc1-c1ccncn1 (centres unmarked) [drawing 572] | 285 | – |
| < 0.8 | 2.32 | Cc1cccc([C@H](CO)NC(=O)c2cccc(NCc3nnc(-c4ccncn4)n3CCO)c2)c1 | 50 | – |
| 12 | 1.8 | CCOc1ccc(C(CO)NC(=O)c2cccc(NCc3nnc(-c4ccncn4)n3C)c2)cn1 (centres unmarked) [drawing 577] | > 30000 | – |
| 2.5 | 4.1 | O=C(N[C@H]1CCOc2ccccc21)c1cccc(NCc2nnc(-c3ccncn3)n2CCO)c1 | 104 | – |
| 11.6 | 22.1 | Cc1cc2c(cc1CNC(=O)c1ccnc(NCc3nnc(-c4ccncn4)n3C)c1)OCCO2 | > 330 | – |
| 6.7 | – | COc1cccc(OC)c1CNC(=O)c1cccc(NCc2nnc3n2CCOc2cnccc2-3)c1 | > 30000 | – |
| 2.9 | – | O=C(NCc1cccc2c1OCC2)c1cccc(NCc2nnc(-c3ccncc3)[nH]2)c1 | > 30000 | – |
| 8.4 | – | Cn1c(CNc2cccc(C(=O)N[C@@H]3CCOc4cc(Cl)ccc43)c2)nnc1-c1ccncn1 | 240 | – |
| 1.7 | – | O=C(NCc1cccc2c1OCC2)c1cccc(NCc2nnc(-c3ccncn3)n2CCO)c1 | > 30000 | – |
| 3.7 | – | O=C(NCc1cccc(F)c1)c1cccc(NCc2nnc3n2CCOc2cnccc2-3)c1 | 7020 | – |
| 13 | – | Cn1c(CNc2cccc(C(=O)N[C@@H]3CCOc4c(Br)cccc43)c2)nnc1-c1ccncn1 | 1630 | – |
| 2.4 | – | O=C(NCc1cccc2c1OCC2)c1cccc(NCc2nnc3n2CCOc2cnccc2-3)c1 | 3010 | – |
| 8.2 | – | O=C(N[C@H]1CCOc2ccccc21)c1cccc(NCc2nnc(-c3ccncc3)n2CCO)c1 | 4580 | – |
| 2.9 | – | Cn1c(CNc2cccc(C(=O)N[C@@H]3CCOc4ccc(Cl)cc43)c2)nnc1-c1ccncn1 | 33.9 | – |
| 7.9 | – | Cn1c(CNc2cc(C(=O)NCc3cnc4ccccn34)ccn2)nnc1-c1ccncn1 | 2750 | – |
| 6.4 | – | Cn1c(CNc2cccc(C(=O)N[C@H]3CCOc4cc(F)ccc43)c2)nnc1-c1ccncn1 | > 30000 | – |

Source: patent publication US20230009608A1, “GRK2 INHIBITORS AND USES THEREOF” (Cygnal Therapeutics, Inc., priority 2020, published 2023)
